The results in this text go back to PMC4467156, “A new chemical inhibitor of angiogenesis and tumorigenesis that targets the VEGF signaling pathway upstream of Ras” (Oncotarget, 2015).

The term IC50 denotes the concentration needed to halve the response being measured. Read a high IC50 as weaker potency. What is called melting point is the temperature of the solid-liquid transition.

Series [1] has as its system LLC/2 tumor. The experiment in a line: Mouse LLC/2 tumor model. Conditions: mouse, in vivo. It counts as in vivo. As to the method:
We chose this model because of its rapid growth in syngenic mice and its strong dependence on angiogenesis. LLC/2 cells (10^6 in 50 μL medium) were subcutaneously injected into the right flank of […] mice. Seven days after tumor inoculation, mice were given an intraperitoneal (i.p.) injection of either solvent (1.7% DMSO) or COB223 every other day. Tumor size was measured with calipers, and the volume was calculated according to the formula (L*w^2)/2 where L and […] stand for length and width respectively. All mice were killed 21 days after tumor grafting.
Tumors collected after animal sacrifice were split into two parts and fixed either in 4% paraformaldehyde (v/v) or in formalin fixative for 24 h at 4°C and embedded in paraffin and then cut into 7 μm sections. Sections were stained using specific antibodies and the avidin–biotin immunoperoxidase detection method. Endogenous peroxidase activity was quenched by pretreatment with 3% (v/v) hydrogen peroxide in methanol for 20 min. For endothelial immunohistochemistry detection, CD31 antibody (MEC13.3, BD Pharmingen) was incubated for 2 h at room temperature. The tissue sections were subsequently washed three times with PBS and incubated with biotinylated rabbit anti-rat IgG (1:250 dilution in blocking solution; Sigma-Aldrich, Saint-Quentin Fallavier, France) for 1 h at room temperature. After three PBS washes, the slides were incubated with an avidin: biotin complex (Vectastain ABC kit; Vector Laboratories, Burlingame, CA) for 45 minutes. After a final PBS wash, the immunoreactive proteins were visualized after the addition of 3,3′-diaminobenzidine (Dako, Trappes, France) for 2 min and then counterstained with hematoxylin. Control sections were treated without primary antibody.

The subject of series [2] is HMEC-GFP cells. As to the kind of experiment: Scratch wound closure assay, HMEC-GFP. It counts as cell-based, human. The settings on record: Homo sapiens; wound closure after 24 h, 10% FCS, tested 3.125 μM to 100 μM. The source says: In order to adapt the endothelial scratch wounding assay to the constraints of high throughput screening, we decided to use an endothelial cell line rather than primary cultures for the sake of reproducibility. Since angiogenesis is triggered by capillary endothelial cells, we selected the HMEC-1 cell line which consists of human dermal microvascular endothelial cells stably expressing SV40 […] antigen. We infected this cell line with GFP-encoding retroviral particles and selected one clone (thereafter named HMEC-GFP) that presented a high level of fluorescence and a strong proliferation rate (doubling time in the presence of serum: 22 h). We controlled that GFP expression was stable over at least 50 passages and that these cells still expressed endothelial markers such as VE-cadherin and CD31. In a standard assay, HMEC-GFP cells were grown until confluence in 96-well plates in the presence of serum, scratched with the multi-tip dispenser of the HTS automat, gently rinsed twice to eliminate detached cells and cell debris that could liberate inflammatory and potentially angiogenic cytokines, and incubated for 24 h in the presence of serum and the compounds to be tested. Each well was photographed at time 0 h (after wounding) and 24 h under a motorized epifluorescence microscope and the digitized images were analyzed using Image J to determine the percentage of wound closure (Figure 1A, 1B). Under our standard conditions, the closure rate was 72 ± 4% in the positive controls and 27 ± 4.% in the negative controls.
(§1) Confluent cell monolayers were wounded with a plastic pipet tip, washed gently with phosphate buffer saline (PBS) and treated with complete media containing molecules, as indicated. Cells were placed at 37°C into the incubator and photographed at indicated times. Quantitation of closure of the monolayer was performed using the NIH Image J program (http://rsbweb.nih.gov/ij/). Results are expressed as percentage of wound closure at t = 24 h as compared to the initial wound at t = 0 h.

Series [3] concerns 3T3-GFP cells. The experiment in a line: Scratch wound closure assay, 3T3-GFP. Conditions: wound closure after 24 h, 10% FCS, tested 3.125 μM to 100 μM. It counts as cell-based.
Text: Using this assay, we screened the academic library of the University of Grenoble, which is composed of 1360 original molecules. Setting the threshold of significant responses at 75% of the maximal inhibition, we identified 80 inhibitory molecules. At this stage, we reasoned that molecules that would affect the cytoskeleton dynamics or the adhesion properties of any cell type would be positive in this assay but would not represent good candidates for further development. We thus decided to perform a secondary counterscreen of the first 80 selected compounds on GFP-expressing 3T3 fibroblasts (3T3-GFP) using the same scratch assay. We then focused our interest on the 5 molecules that inhibited more strongly HMEC-GFP than 3T3-GFP wound healing. […] We synthesized a series of 30 analogs and tested them at various concentrations both on HMEC-GFP and 3T3-GFP cells. […] Dansyl and naphthalimide aromatic groups, found in COB223 and COB227 respectively, appeared very efficient. The presence of the diaminomethyl group on dansyl is critical for the activity of COB223 as shown by the lower efficiency of COB235 (IC50 is 8 times higher than that of COB223). COB223 and COB227 contain a tert-butyloxycarbonyl function (BOC group) as a second hydrophobic group. Replacement of BOC by an amino group decreased the efficiency and the specificity (compare 05-102-L-B09 vs 05-06-L-D03, or COB227 vs COB228).
as §1

A short description of series [4]: Water solubility. The series is classed as physicochemical.
Series [5] concerns HUVEC cells. As to the kind of experiment: Scratch assay on HUVEC with or without mitomycin C. The series is classed as cell-based, human. Conditions: HUVEC pretreated 24 h with 2 μg/mL mitomycin C. As to the method: Confluent cell monolayers were wounded with a plastic pipet tip, washed gently with phosphate buffer saline (PBS) and treated with complete media containing molecules, as indicated. Cells were placed at 37°C into the incubator and photographed at indicated times. Quantitation of closure of the monolayer was performed using the NIH Image J program (http://rsbweb.nih.gov/ij/). Results are expressed as percentage of wound closure at t = 24 h as compared to the initial wound at t = 0 h. […]
www.impactjournals.com/oncotarget/ Oncotarget, Supplementary Materials 2015 […]
Figure S1: Effect of COB223 on endothelial cell migration. (A) Scratch assay: Confluent HUVEC cells were pretreated for 24 h without (CTL) or with 2 μg/mL of mitomycin C before a wound was made in the cell monolayer. After wounding, cells were incubated at 37°C in the absence or the presence of 25 μM COB223. Wound closure was measured after 24 h and 48 h of incubation as described in Material and Methods. […]
(B) Boyden chamber assay: The technique is described in Material and Methods. We measured the passage of fluorescently labeled HUVEC cells through a 3 μm-porous membrane in response to fetal calf serum used as a chemo-attractant. […] The Figure represents the mean fluorescence ± SD of duplicate determinations after 24 h or 48h of incubation from two independent experiments. […]

Series [6] deals with HUVEC cells. The experiment in a line: 3H-thymidine incorporation, HUVEC. It counts as cell-based, human. Conditions: mitomycin C-treated cells vs untreated, data not shown. As to the method:
Cells were treated with molecules in complete medium. After 22 h, 1 μCi per well H^3 thymidine was added for 2 hours. Cells are then fixed by 10% trichloroacetic acid and harvested with 0.2N NaOH, 1% SDS. Radioactivity was measured in a beta counter.
For orientation: Incorporation of labelled thymidine or its analogues reports DNA synthesis.

The structures appear in SMILES notation.

For the molecule `CC(C)(C)OC(=O)NCCCN1CCN(CCCN2C(=O)c3cccc4cccc(c34)C2=O)CC1` [COB227, N-{3-[4-(3-tert-Butoxycarbonylaminopropyl)piperazin-1-yl]propyl}-1,8-naphthalimide], the “effect on in vivo LLC/2 tumor growth” value in series [1] is recorded as “no inhibition”. For the same molecule, the IC50 stood at 18 µM in series [2] and 250 µM in series [3].
In the case of `CN(C)c1cccc2c(S(=O)(=O)NCCOCCOCCNS(=O)(=O)c3cccc4c(N(C)C)cccc34)cccc12` [COB295, 5-Dimethylamino-N-(2-[2-{2-(5-(dimethylamino)naphthalene-1-sulfonamido)ethoxy}ethoxy]ethyl)naphthalene-1-sulfonamide], the water solubility entry in series [4] is “lack of water solubility”. In series [2], this molecule gave an IC50 of 5 µM.
The molecule `CN(C)c1cccc2c(S(=O)(=O)NCCCNS(=O)(=O)c3cccc4c(N(C)C)cccc34)cccc12` [Compound 05-06-F11, 1,3-bis [5-(Dimethylamino)naphthalene-1-sulfonamido] diaminopropane] gave a melting point of 90 °C. In series [4], the water solubility result is “lack of water solubility”. In series [2], this molecule had an IC50 of 15 µM. In addition, in series [3], the IC50 turned out to be 40 µM.
As to `CO[C@@]12[C@H](COC(N)=O)C3=C(C(=O)C(C)=C(N)C3=O)N1C[C@@H]1N[C@@H]12` [mitomycin C, reference compound], the wound healing entry in series [5] is “slowed down”. Further, the 3H-thymidine incorporation entry in series [6] was “complete inhibition”.
